{"source": "patent US9662404B2", "about": "“Compositions and methods for the delivery of molecules into live cells” (The Texas A&M University System, priority 2013, dated 2017)", "type_in_all_cases": "cell-based", "key": {"HeLa cells [1]": {"test_system": "HeLa cells", "experiment": "Delivery of peptides inside live cells, internalization assessed by fluorescence microscopy", "details": "for cellular localization of peptide fluorescence: 1 h incubation", "procedure": "The TAT, dTAT and acTAT peptides were incubated for 1 h with several cell lines and internalization was assessed by fluorescence microscopy. […] See also FIG. 5. […] The cell lines HeLa, NIH 3T3, COLO 316 and HaCaT were incubated with 5 μM dTAT for 1 h, washed and imaged. […] After imaging, cells were incubated at 37° C. in a humidified atmosphere containing 5% CO2 for 24 h, washed and imaged again. […] Cell viability was assessed by exclusion of the cell-impermeable nuclear stain SYTOX® Blue at both 1 h and 24 h time point. […] Inverted monochrome (black=fluorescence signal, white-no signal) fluorescence images were made of HeLa cells incubated with 10 or 20 μM of TAT for 1 h.\nLive cells from different lines (HeLa, HaCat, NIH 3T3) were grown in Dulbecco's […] (DMEM) (Fisher) supplemented with 10% fetal bovine serum (FBS) (Fisher) and kept at 37° C. in a humidified atmosphere containing 5% CO2. Cells were then seeded in 8-well dishes so that the cells were 80%-90% confluent after 48 h. […] The media (nrL-15) used for incubation lacks cysteine to avoid reduction of the disulfide bond of dTAT. Cells were then incubated with different concentrations of the acTAT, TAT, or dTAT at 37° C. for 1 h. […] Images were collected using a Rolera-MGI Plus back-illuminated EMCCD camera (Qimaging, Surrey, BC, Canada). Images were acquired using bright field imaging and three standard fluorescence filter sets: CFP (Ex=436±10 nm/Em=480±20 nm), RFP (Ex=560±20 nm/Em=630±35 nm), and FITC (Ex=488±10 nm/Em=520±20 nm). The fluorescence intensities of different cells were measured with the SlideBook 4.2 software (Olympus, Center Valley, Pa.) and the average fluorescence intensity was determined for each condition. It has been previously reported that CPPs labeled with fluorophores such as TMR can photosensitize membranes and cause endosomal leakage upon light irradiation. See, Srinivasan, D. et al., “Conjugation to the cell-penetrating peptide TAT potentiates the photodynamic effect of carboxytetramethylrhodamine,” PloS one 6:e17732 (2011) and Muthukrishnan, N., et al., “Synergy Between Cell-Penetrating Peptides and Singlet Oxygen Generators Leads to Efficient Photolysis of Membranes,” Photochemistry and Photobiology 89:625-630 (2012), each incorporated herein by reference in its entirety. […] First, all delivery experiments were performed under conditions of minimal light irradiation (dark room with dim red light). When fluorescence imaging is required, probes (e.g., SNAP surface 488, EGFP) are imaged before dTAT is, thereby minimizing the possible effect of light on endosomal release. For experiments performed with Cre and Hoxb4, cells are not imaged and not exposed to light (not at all for Hoxb4, 12 h after incubation for Cre)."}, "HeLa cells [2]": {"test_system": "HeLa cells", "experiment": "Quantitative determination of peptide uptake inside cells (bulk fluorescence of cell lysates)", "details": "1-10 μM, 1 h", "procedure": "HeLa cells were seeded in a 48 well dish, grown and washed as described above. For the peptide uptake experiment, each well was incubated for 1 h with varying concentration of acTAT, TAT or dTAT (range: 5-25 μM peptide concentration). For the titration experiment, cells were incubated with dTAT (5 μM) and varying concentrations of DEAC-K9 (range: 1-20 μM). Cells were then washed with PBS and nrL-15 and imaged. Multiple images for each condition were obtained and processed. To lyse cells, nrL-15 was removed from the wells and a total of 100 μL of HeLa cell lysis Buffer (50 mM Tris pH 7.5, 2 mM EDTA, 2 mM DTT, 0.1% Triton X-100) was incubated with cells for 5 min. The cells were lysed and scraped off the dish and pipetted into a 1.5 mL microcentrifuge tube. The cell lysates were centrifuged at 13.2K RPM for 25 min. […] The fluorescence from the cell lysates were measured using a plate reader equipped with a fluorescence module (Ex==525, Em=580-640 nm) (GloMax®-Multi+ Detection System, Promega, Fitchburg, Wis.). For the titration experiment, 80 μL of supernatant was diluted to a total volume of 100 μL and the bulk fluorescence was measured using a SLM-8000C fluorometer (Ex=435 nm, Em=465-475 nm) (SLM Instruments, Bath, UK). The fluorescence emission was averaged and recorded. […] The absorbance at 600 nm was measured using the plate reader. […]"}, "HeLa or NIH 3T3 cells": {"test_system": "HeLa or NIH 3T3 cells", "experiment": "dTAT-mediated delivery of EGFP by co-incubation", "details": "EGFP 10 μM and dTAT 5 μM, 1 h", "procedure": "dTAT, DEAC-K9 and, SNAP-Surface® 488 are relatively small molecules. It was therefore addressed whether dTAT-mediated endosomal leakage could deliver large proteins into the cytosol of cells. For this assay, EGFP (26 kDa) was chosen as a model, since this protein is fluorescent only when properly folded. EGFP and dTAT were incubated for 1 h with cells and the protein distribution was examined by fluorescence. […] While protein degradation might take place during delivery, this assay establishes that a population of folded protein is delivered.\nImages were acquired as described before."}, "[3]": {"test_system": "HeLa transfected with the pCALNL-GFP plasmid", "details": "delivery peptide 5 μM in the presence of TAT-Cre 1 μM, 1 h", "method": "The number of cells in the images was approximately the same as assessed by bright field microscopy (1,000 cells/experiment, experiments in triplicate, average and standard deviations represented). Scale bars, 100 μM.\nTo further confirm that functional proteins can penetrate cells upon incubation with dTAT, delivery of Cre recombinase was tested. In this assay, Cre induces recombination of a loxP-STOP-loxP sequence upstream of the egfp gene of a reporter plasmid."}, "HeLa cells [4]": {"test_system": "HeLa cells", "experiment": "Step-wise repeated delivery of DEAC-K9 and SNAP-Surface 488", "details": "5 μM dTAT + 5 μM DEAC-K9 1 h, then 5 μM dTAT + 5 μM SNAP-Surface 488 1 h", "method": "To test this idea, the step-wise delivery of two different molecules (DEAC-K9 and SNAP-Surface® 488) was assessed. Cells were first incubated with dTAT (5 μM) and DEAC-K9 (5 μM) for 1 h. […] Twenty minutes later, cells were incubated with dTAT (5 μM) and SNAP-Surface® 488 (5 μM) for 1 h. […] Briefly, HeLa cells were first incubated with 5 μM dTAT and 5 μM DEAC-K9 for 1 h. Cells were then washed, incubated with 5 μM SNAP-Surface® 488 for 1 h and imaged."}}, "note": "Ends that are not written are not given here."}
{"substance": "(CK(TMR)TAT)2 (CK(TMR)RKKRRQRRRG; also: dimer) [dTAT, dimer of two CK(TMR)-TAT monomers linked via a disulfide bond between the N-terminal cysteine residues]", "values": [{"measurement": "cells in which cytosolic delivery is observed", "setting": "HeLa cells [1]; 5 μM", "value": "more than 95%"}, {"measurement": "concentration range with dramatic increase in cytosolic delivery of the peptide", "setting": "HeLa cells [1]; HeLa cells, dTAT 1-5 μM", "value": "2 to 5", "unit": "µM"}, {"measurement": "cellular localization of peptide fluorescence", "setting": "HeLa cells [1]; above 5 μM", "value": "distributed in the cytosol and nucleus"}, {"measurement": "cellular localization of peptide fluorescence", "setting": "HeLa cells [1]; below 2 μM", "value": "punctate"}, {"measurement": "overall amount of peptide inside cells (cytosol+endosomes), bulk fluorescence of lysates", "setting": "HeLa cells [2]", "value": "almost linearly correlated to the concentration of dTAT administered extracellularly"}, {"measurement": "cells with EGFP distributed into the cytosol and nucleus", "setting": "HeLa or NIH 3T3 cells", "value": "more than 90%"}, {"measurement": "toxicity during EGFP delivery", "setting": "HeLa or NIH 3T3 cells", "value": "without observable toxicity"}, {"measurement": "percentage of EGFP+ cells", "setting": "[3]", "value": 47, "unit": "%"}, {"measurement": "repeatability of dTAT-mediated delivery", "setting": "HeLa cells [4]", "value": "can be repeated"}]}
